# Experimental data: patent publication US20250034108A1, “SODIUM CHANNEL BLOCKERS” (NOVARTIS AG, priority 2023, published 2025)
# Tests used:
# Assay type in all cases: cell-based
# [1] = target: T1, human Nav1.5 (Homo sapiens (Human), UniProt Q14524); test: Qpatch automated patch-clamp, peak Nav1.5 current inhibition, 1 Hz with 50 nM ATX-II (holding potential -100 mV); settings: CHO-K1 cells stably expressing human Nav1.5, read-out: Nav1.5 IC50 (1 Hz, ATXII)
# From the text: (§1) Electrophysiology was used to measure the ionic currents in isolated living cells using automated patch-clamp recording, performed using an automated patch-clamp machine called Qpatch (Sophion Bioscience). Two different assay conditions were used to identify compounds with atrial-selective potential. The 5-Hz AF-like assay has more depolarized holding potential at −85 mV to mimic atrial resting membrane potential (RMP) and was used to identify compounds of strong rate-dependence. Active, rate-dependent compounds were then screened at 1 Hz (i.e., sinus rate) at the holding potential of −100 mV to mimic the ventricular scenario and help identify compounds with the largest potency separation or attenuation from the 5-Hz AF-like assay. Such compounds have the potential for treating AF without the QRS liability inherent to Class Ic drugs.
# (§2) The sodium current conducted through a cell (via Nav1.5) or electrical signals were processed through a low-pass filter at 5 KHz, re-digitalized and acquired at 20 kHz. Series resistance was not compensated and leak subtraction was performed.
# (§3) 1 to 3 million Chinese Hamster Ovary cells (also known as CHO-K1) stably expressing human Nav1.5 were seeded into […] culture flasks with 25 mL medium (consisting of Gibco Dulbecco's Modified Eagle Medium as a base medium with 1% MEM non-essential amino acids, 400 μg/mL Geneticin, 5 μg/mL puromycin and 10% fetal bovine serum) 48-72 hours prior to the experiments. On the day of the experiment, cells were washed once with phosphate-buffered saline (also known as PBS; Gibco) detached with Detachin™ (Genlantis), and re-suspended in CHO—S-SFM II media (Gibco) at 200,000 cells/mL. The CHO—S-SFM II was replaced with assay solutions prior to the assays. Whole-cell currents were recorded at room temperature in the whole-cell configuration. The external aqueous assay solution (pH=7.4; Osm=307-315) contained the following (the concentration for each component is expressed in parentheses in mM): NaCl (140 mM), KCl (4 mM), CaCl2) (2 mM), MgCl2 (1 mM), 4-(2-hydroxyethyl)-1-piperazineethanesulfonic acid, also known as HEPES (10 mM), and glucose (5 mM). The internal aqueous assay solution (pH=7.2; Osm=292-295) contained the following (the concentration for each component is expressed in parentheses in mM): CsF (110 mM), CsCl (10 mM), NaCl (10 mM), HEPES (10 mM), and ethylene glycolbis(β-aminoethyl ether)-N,N,N′,N′-tetraacetic acid, also known as EGTA (10 mM).
# (§4) To assess peak Nav1.5 current inhibition mimicking a ventricular condition at sinus rate with or without ATX-II (Nav1.5 IC50 (1 Hz, ATXII) (μM) or (1 Hz, Sinus Rate) (μM)), compounds were first prepared at 10 mM in DMSO, and cells were pre-incubated with test compounds at each concentration for 3 min. in an ascending order of 0, 0.37, 1.1, 3.3, 10 and 30 uM. In the assay with ATX-II (Alomone Labs), 50 nM ATX-II was included during the 3-min. compound incubation. A square pulse (−10 mV; 400 ms and a holding potential at −100 mV) was run at 1 Hz for 25 s until no further inhibition or Nav1.5 current change was observed. The percent inhibition (expressed as ([Iafter compound treatment/Ibefore compound treatment]×100%) is calculated by normalizing the peak current amplitude at the last pulse of each of the 6 compound concentrations by the amplitude before exposure to the test compound. The compiled data was further normalized by vehicle control (DMSO) to account for Nav1.5 current run-down, and IC50 was calculated by Matlab (MathWorks, USA).
# [2] = target: T1, human Nav1.5; test: Qpatch automated patch-clamp, peak Nav1.5 current inhibition, 5-Hz AF-like assay (holding potential -85 mV); settings: CHO-K1 cells stably expressing human Nav1.5, holding potential -85 mV, Table 5, read-out: Nav1.5 IC50 (5 Hz, AF Rate)
# Summary of the method: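 CHO-K1 cells stably expressing human Nav1.5, whole-cell automated patch-clamp at room temperature, CsF-based internal. Compounds pre-incubated 3 min each at ascending 0-30 μM; +10 to −85 mV ramp (150 ms) applied at 5 Hz for 12 s from −85 mV holding. IC50 from last-pulse peak current, vehicle-normalized for run-down.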
# [3] = target: T1, human Nav1.5; test: Qpatch automated patch-clamp, peak Nav1.5 current inhibition, 1 Hz sinus rate, ventricular condition (holding potential -100 mV); settings: CHO-K1 cells stably expressing human Nav1.5, without ATX-II
# From the text: as §1, §2, §3, §4
# T1 sequence (Q14524 whole entry): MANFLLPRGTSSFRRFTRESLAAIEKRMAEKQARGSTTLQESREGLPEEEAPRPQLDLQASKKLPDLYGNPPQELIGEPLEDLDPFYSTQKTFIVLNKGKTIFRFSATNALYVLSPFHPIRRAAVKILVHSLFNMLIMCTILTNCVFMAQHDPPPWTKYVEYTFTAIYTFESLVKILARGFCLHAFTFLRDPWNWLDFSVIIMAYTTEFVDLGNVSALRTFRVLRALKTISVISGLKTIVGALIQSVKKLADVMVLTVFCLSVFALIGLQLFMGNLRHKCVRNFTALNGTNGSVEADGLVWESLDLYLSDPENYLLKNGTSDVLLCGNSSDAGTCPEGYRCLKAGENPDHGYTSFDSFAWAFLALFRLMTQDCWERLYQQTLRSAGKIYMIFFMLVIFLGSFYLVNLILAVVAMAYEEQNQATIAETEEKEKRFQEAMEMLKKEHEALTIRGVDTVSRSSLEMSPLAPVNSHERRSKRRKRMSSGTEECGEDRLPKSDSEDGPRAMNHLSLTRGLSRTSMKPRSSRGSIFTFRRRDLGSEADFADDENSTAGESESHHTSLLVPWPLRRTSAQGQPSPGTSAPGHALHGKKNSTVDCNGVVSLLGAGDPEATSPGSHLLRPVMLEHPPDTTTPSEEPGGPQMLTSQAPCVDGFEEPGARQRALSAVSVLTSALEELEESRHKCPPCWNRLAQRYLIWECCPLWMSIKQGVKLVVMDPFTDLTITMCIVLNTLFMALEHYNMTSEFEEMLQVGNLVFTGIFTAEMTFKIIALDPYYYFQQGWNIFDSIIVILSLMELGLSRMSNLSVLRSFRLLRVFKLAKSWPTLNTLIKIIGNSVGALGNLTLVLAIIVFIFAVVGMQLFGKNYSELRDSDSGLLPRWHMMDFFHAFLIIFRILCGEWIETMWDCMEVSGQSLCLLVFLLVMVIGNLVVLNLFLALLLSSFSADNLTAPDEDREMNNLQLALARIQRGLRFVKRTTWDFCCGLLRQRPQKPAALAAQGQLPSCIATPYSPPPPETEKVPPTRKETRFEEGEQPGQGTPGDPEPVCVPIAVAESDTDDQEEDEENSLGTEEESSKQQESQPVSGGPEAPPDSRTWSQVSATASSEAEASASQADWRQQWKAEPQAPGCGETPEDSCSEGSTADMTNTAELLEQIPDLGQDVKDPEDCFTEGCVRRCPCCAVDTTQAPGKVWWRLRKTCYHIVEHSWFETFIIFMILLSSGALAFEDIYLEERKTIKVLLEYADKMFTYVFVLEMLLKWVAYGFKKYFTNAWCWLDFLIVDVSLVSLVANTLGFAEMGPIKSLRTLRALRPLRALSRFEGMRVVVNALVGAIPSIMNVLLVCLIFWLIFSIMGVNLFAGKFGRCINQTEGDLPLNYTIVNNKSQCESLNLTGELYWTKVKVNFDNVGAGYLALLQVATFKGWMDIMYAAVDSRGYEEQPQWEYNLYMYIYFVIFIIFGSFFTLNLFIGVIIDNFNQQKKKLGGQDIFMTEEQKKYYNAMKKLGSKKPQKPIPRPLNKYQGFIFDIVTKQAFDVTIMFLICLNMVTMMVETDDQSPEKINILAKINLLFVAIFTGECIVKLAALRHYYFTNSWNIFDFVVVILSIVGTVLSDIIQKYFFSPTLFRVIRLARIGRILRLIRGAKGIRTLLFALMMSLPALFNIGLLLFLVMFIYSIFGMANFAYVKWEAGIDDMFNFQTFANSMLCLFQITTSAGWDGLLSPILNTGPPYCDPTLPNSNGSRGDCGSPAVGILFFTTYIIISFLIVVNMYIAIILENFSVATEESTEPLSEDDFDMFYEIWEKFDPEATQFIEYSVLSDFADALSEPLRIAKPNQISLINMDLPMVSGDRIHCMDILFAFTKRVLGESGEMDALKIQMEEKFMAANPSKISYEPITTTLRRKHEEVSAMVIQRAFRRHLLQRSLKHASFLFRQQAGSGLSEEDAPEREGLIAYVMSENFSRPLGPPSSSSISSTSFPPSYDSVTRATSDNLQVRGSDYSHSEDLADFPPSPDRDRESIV
Compound,IC50 [1] [µM],IC50 [2] [µM],IC50 [3] [µM]
"CC(O)(CS(N)(=O)=O)c1cccc(-c2ncn(Cc3cc(OC(F)(F)F)ccc3F)n2)n1 (racemic) [Rac-55 + 56, 2-(6-(1-(2-fluoro-5-(trifluoromethoxy)benzyl)-1H-1,2,4-triazol-3-yl)pyridin-2-yl)-2-hydroxypropane-1-sulfonamide]",17,4.5,> 30
"CC(O)(CS(N)(=O)=O)c1ccc(Cl)c(-c2nnn(Cc3cc(OC(F)(F)F)ccc3F)n2)c1 (single isomer, unassigned) [Example 7, (R or S)-2-(4-chloro-3-(2-(2-fluoro-5-(trifluoromethoxy)benzyl)-2H-tetrazol-5-yl)phenyl)-2-hydroxypropane-1-sulfonamide]",15,1.3,28
"CC(O)(CS(N)(=O)=O)c1ccc(Cl)c(-c2nnn(Cc3cc(OC(F)(F)F)ccc3F)n2)c1 (single isomer, unassigned) [Example 8, (R or S)-2-(4-chloro-3-(2-(2-fluoro-5-(trifluoromethoxy)benzyl)-2H-tetrazol-5-yl)phenyl)-2-hydroxypropane-1-sulfonamide]",28,1.3,> 30
"CC(O)(CS(N)(=O)=O)c1ccc(F)c(-c2nnn(Cc3cc(OC(F)(F)F)ccc3F)n2)c1 (single isomer, unassigned) [Example 9, (R or S)-2-(4-fluoro-3-(2-(2-fluoro-5-(trifluoromethoxy)benzyl)-2H-tetrazol-5-yl)phenyl)-2-hydroxypropane-1-sulfonamide]",> 30,4.1,> 30
"CC(O)(CS(N)(=O)=O)c1ccc(F)c(-c2nnn(Cc3cc(OC(F)(F)F)ccc3F)n2)c1 (single isomer, unassigned) [Example 10, (R or S)-2-(4-fluoro-3-(2-(2-fluoro-5-(trifluoromethoxy)benzyl)-2H-tetrazol-5-yl)phenyl)-2-hydroxypropane-1-sulfonamide]",11,1,> 30
"CC(O)(CS(N)(=O)=O)c1cccc(-c2nnn(Cc3cc(OC(F)(F)F)ccc3F)n2)c1F (single isomer, unassigned) [Example 11, (R or S)-2-(2-fluoro-3-(2-(2-fluoro-5-(trifluoromethoxy)benzyl)-2H-tetrazol-5-yl)phenyl)-2-hydroxypropane-1-sulfonamide]",5.6,1.7,8.9
"CC(O)(CS(N)(=O)=O)c1cccc(-c2nnn(Cc3cc(OC(F)(F)F)ccc3F)n2)c1F (single isomer, unassigned) [Example 12, (R or S)-2-(2-fluoro-3-(2-(2-fluoro-5-(trifluoromethoxy)benzyl)-2H-tetrazol-5-yl)phenyl)-2-hydroxypropane-1-sulfonamide]",5.2,4.2,10
"CC(C(C)(O)c1cccc(-c2nnn(Cc3cc(OC(F)(F)F)ccc3F)n2)n1)S(N)(=O)=O (single isomer, unassigned) [Example 13, (2R or 2S, 3R or 3S)-3-(6-(2-(2-fluoro-5-(trifluoromethoxy)benzyl)-2H-tetrazol-5-yl)pyridin-2-yl)-3-hydroxybutane-2-sulfonamide]",> 30,4.3,12
"CC(C(C)(O)c1cccc(-c2nnn(Cc3cc(OC(F)(F)F)ccc3F)n2)n1)S(N)(=O)=O (single isomer, unassigned) [Example 14, (2R or 2S,3R or 3S)-3-(6-(2-(2-fluoro-5-(trifluoromethoxy)benzyl)-2H-tetrazol-5-yl)pyridin-2-yl)-3-hydroxybutane-2-sulfonamide]",15,4,> 30
"CC(C(C)(O)c1cccc(-c2nnn(Cc3cc(OC(F)(F)F)ccc3F)n2)n1)S(N)(=O)=O (single isomer, unassigned) [Example 15, (2R or 2S,3R or 3S)-3-(6-(2-(2-fluoro-5-(trifluoromethoxy)benzyl)-2H-tetrazol-5-yl)pyridin-2-yl)-3-hydroxybutane-2-sulfonamide]",24,4.1,> 30
"CC(C(C)(O)c1cccc(-c2nnn(Cc3cc(OC(F)(F)F)ccc3F)n2)n1)S(N)(=O)=O (single isomer, unassigned) [Example 16, (2R or 2S, 3R or 3S)-3-(6-(2-(2-fluoro-5-(trifluoromethoxy)benzyl)-2H-tetrazol-5-yl)pyridin-2-yl)-3-hydroxybutane-2-sulfonamide]",4.8,2.8,16
"CC(O)(CS(N)(=O)=O)c1cc(F)cc(-c2nnn(Cc3cc(OC(F)(F)F)ccc3F)n2)c1 (single isomer, unassigned) [Example 23, (R or S)-2-(3-fluoro-5-(2-(2-fluoro-5-(trifluoromethoxy)benzyl)-2H-tetrazol-5-yl)phenyl)-2-hydroxypropane-1-sulfonamide]",> 30,5.6,> 30
"CC(O)(CS(N)(=O)=O)c1cc(F)cc(-c2nnn(Cc3cc(OC(F)(F)F)ccc3F)n2)c1 (single isomer, unassigned) [Example 24, (R or S)-2-(3-fluoro-5-(2-(2-fluoro-5-(trifluoromethoxy)benzyl)-2H-tetrazol-5-yl)phenyl)-2-hydroxypropane-1-sulfonamide]",7.8,2,> 30
"CC(O)(CS(N)(=O)=O)c1cccc(-c2nnn(Cc3cccc(C(F)(F)F)c3)n2)n1 (single isomer, unassigned) [Example 40, (R or S)-2-hydroxy-2-(6-(2-(3-(trifluoromethyl)benzyl)-2H-tetrazol-5-yl)pyridin-2-yl)propane-1-sulfonamide]",,21,> 30
"CC(O)(CS(N)(=O)=O)c1cccc(-c2nnn(Cc3cccc(C(F)(F)F)c3)n2)n1 (single isomer, unassigned) [Example 41, (R or S)-2-hydroxy-2-(6-(2-(3-(trifluoromethyl)benzyl)-2H-tetrazol-5-yl)pyridin-2-yl)propane-1-sulfonamide]",,> 30,> 30
"CC(C(O)c1cccc(-c2nnn(Cc3cc(OC(F)(F)F)ccc3F)n2)n1)S(N)(=O)=O (single isomer, unassigned) [Example 51, (JR or 1S,2R or 2S)-1-(6-(2-(2-fluoro-5-(trifluoromethoxy)benzyl)-2H-tetrazol-5-yl)pyridin-2-yl)-1-hydroxypropane-2-sulfonamide]",,25,> 30
"CC(O)(CS(N)(=O)=O)c1cccc(-c2ncn(Cc3cc(OC(F)(F)F)ccc3F)n2)n1 (single isomer, unassigned) [Example 55, (R or S)-2-(6-(1-(2-fluoro-5-(trifluoromethoxy)benzyl)-1H-1,2,4-triazol-3-yl)pyridin-2-yl)-2-hydroxypropane-1-sulfonamide]",,19,> 30
"CC(O)(CS(N)(=O)=O)c1cccc(-c2ncn(Cc3cc(OC(F)(F)F)ccc3F)n2)n1 (single isomer, unassigned) [Example 56, (R or S)-2-(6-(1-(2-fluoro-5-(trifluoromethoxy)benzyl)-1H-1,2,4-triazol-3-yl)pyridin-2-yl)-2-hydroxypropane-1-sulfonamide]",,16,> 30
